Laboratory results from patent US20090270379A1, “QUINOLONE DERIVATIVES USEFUL AS ANTIBACTERIAL AGENTS” (priority 2008, published 2009).
Values after ≈ are worked out from the molar mass of the structure shown.

How the values were obtained:
Type in all cases: cell-based
[1] = test system: Streptococcus pneumoniae ATCC 49619; experiment: In vitro antibacterial activity (MIC), microdilution broth method, strain E; details: ATCC49619, 35° C., 16-20 hours
Method: (§1) Minimal inhibitory concentration (MIC) is an indicator of in vitro antibacterial activity. […] The in vitro antimicrobial activity of representative compounds of the present invention was determined by the microdilution broth method following the test method from the National Committee for Clinical Laboratory Standards (NCCLS). This method is described in the NCCLS Document M7-A4, Vol. 17, No. 2, “Methods for Dilution Antimicrobial Susceptibility Test for Bacteria that Grow Aerobically—Fourth Edition”, which is incorporated herein by reference.
(§2) In this method two-fold serial dilutions of drug in cation adjusted Mueller-Hinton broth were added to wells in microdilution trays. The test organisms were prepared by adjusting the turbidity of actively growing broth cultures so that the final concentration of test organism after it is added to the wells was approximately 5×10^4 CFU/well. Following inoculation of the microdilution trays, the trays were incubated at 35° C. for 16-20 hours and then read. The amount of growth in the wells containing the test compound was compared with the amount of growth in the growth-control wells (no test compound) used in each tray.
(§3) Representative compounds of the present invention were tested against a variety of pathogenic bacteria with results as listed in Table 3, below.

[2] = test system: Staphylococcus aureus OC4172; experiment: In vitro antibacterial activity (MIC), microdilution broth method, strain A; details: cation adjusted Mueller-Hinton broth, 35° C., 16-20 hours
Method: as §1, §2, §3

[3] = test system: strain B, fluoroquinolone-resistant clinical isolate of Streptococcus pneumoniae; experiment: In vitro antibacterial activity (MIC), microdilution broth method, strain B; details: read-out: MIC (μg/mL) B
Method: as §1, §2, §3

[4] = test system: strain C, fluoroquinolone-resistant clinical isolate of Streptococcus pneumoniae; experiment: In vitro antibacterial activity (MIC), microdilution broth method, strain C; details: read-out: MIC (μg/mL) C
Method: as §1, §2, §3

[5] = test system: strain D, fluoroquinolone-resistant clinical isolate of Streptococcus pneumoniae; experiment: In vitro antibacterial activity (MIC), microdilution broth method, strain D; details: read-out: MIC (μg/mL) D
Method: as §1, §2, §3

SMILES	MIC [1]	MIC [2]	MIC [3]	MIC [4]	MIC [5]
C[C@@H]1NCCn2cc(-c3cc4c(cc3F)c(=O)c(C(=O)O)cn4C3CC3)cc21 [Compound 21, 1-Cyclopropyl-6-fluoro-7-(1S-methyl-1,2,3,4-tetrahydro-pyrrolo[1,2-a]pyrazin-7-yl)-4-oxo-1,4-dihydro-quinoline-3-carboxylic acid]	1 µg/mL (≈ 2.62 µM)	0.25 µg/mL (≈ 0.655 µM)	4 µg/mL (≈ 10.5 µM)	16 µg/mL (≈ 41.9 µM)	16 µg/mL (≈ 41.9 µM)
C[C@H]1NCCn2cc(-c3cc4c(cc3F)c(=O)c(C(=O)O)cn4C3CC3)cc21 [Compound 22, 1-Cyclopropyl-6-fluoro-7-(1R-methyl-1,2,3,4-tetrahydro-pyrrolo[1,2-a]pyrazin-7-yl)-4-oxo-1,4-dihydro-quinoline-3-carboxylic acid]	1 µg/mL (≈ 2.62 µM)	0.25 µg/mL (≈ 0.655 µM)	4 µg/mL (≈ 10.5 µM)	16 µg/mL (≈ 41.9 µM)	> 16 µg/mL
C[C@H]1Cn2cc(-c3c(F)cc4c(=O)c(C(=O)O)cn5c4c3OC[C@@H]5C)cc2CN1 [Compound 23, 8-Fluoro-3S-methyl-9-(3S-methyl-1,2,3,4-tetrahydro-pyrrolo[1,2-a]pyrazin-7-yl)-6-oxo-2,3-dihydro-6H-1-oxa-3a-aza-phenalene-5-carboxylic acid]	1 µg/mL (≈ 2.52 µM)	0.25 µg/mL (≈ 0.629 µM)	4 µg/mL (≈ 10.1 µM)	8 µg/mL (≈ 20.1 µM)	16 µg/mL (≈ 40.3 µM)
C[C@@H]1NCCn2cc(-c3c(F)cc4c(=O)c(C(=O)O)cn5c4c3OC[C@@H]5C)cc21 [Compound 24, 8-Fluoro-3S-methyl-9-(1S-methyl-1,2,3,4-tetrahydro-pyrrolo[1,2-a]pyrazin-7-yl)-6-oxo-2,3-dihydro-6H-1-oxa-3a-aza-phenalene-5-carboxylic acid]	1 µg/mL (≈ 2.52 µM)	0.25 µg/mL (≈ 0.629 µM)	4 µg/mL (≈ 10.1 µM)	8 µg/mL (≈ 20.1 µM)	16 µg/mL (≈ 40.3 µM)
C[C@H]1Cn2cc(-c3nc4c(cc3F)c(=O)c(C(=O)O)cn4C3CC3)cc2CN1 [Compound 25, 1-Cyclopropyl-6-fluoro-7-(3S-methyl-1,2,3,4-tetrahydro-pyrrolo[1,2-a]pyrazin-7-yl)-4-oxo-1,4-dihydro-[1,8]naphthyridine-3-carboxylic acid]	0.5 µg/mL (≈ 1.31 µM)	0.06 µg/mL (≈ 0.157 µM)	2 µg/mL (≈ 5.23 µM)	8 µg/mL (≈ 20.9 µM)	8 µg/mL (≈ 20.9 µM)
C[C@@H]1NCCn2cc(-c3nc4c(cc3F)c(=O)c(C(=O)O)cn4C3CC3)cc21 [Compound 26, 1-Cyclopropyl-6-fluoro-7-(1S-methyl-1,2,3,4-tetrahydro-pyrrolo[1,2-a]pyrazin-7-yl)-4-oxo-1,4-dihydro-[1,8]naphthyridine-3-carboxylic acid]	1 µg/mL (≈ 2.62 µM)	0.5 µg/mL (≈ 1.31 µM)	8 µg/mL (≈ 20.9 µM)	8 µg/mL (≈ 20.9 µM)	16 µg/mL (≈ 41.8 µM)
C[C@H]1Cn2cc(-c3nc4c(cc3F)c(=O)c(C(=O)O)cn4-c3ccc(F)cc3F)cc2CN1 [Compound 27, 1-(2,4-Difluoro-phenyl)-6-fluoro-7-(3S-methyl-1,2,3,4-tetrahydro-pyrrolo[1,2-a]pyrazin-7-yl)-4-oxo-1,4-dihydro-[1,8]naphthyridine-3-carboxylic acid]	1 µg/mL (≈ 2.2 µM)	0.12 µg/mL (≈ 0.264 µM)	16 µg/mL (≈ 35.2 µM)	16 µg/mL (≈ 35.2 µM)	> 16 µg/mL
C[C@@H]1NCCn2cc(-c3nc4c(cc3F)c(=O)c(C(=O)O)cn4-c3ccc(F)cc3F)cc21 [Compound 28, 1-(2,4-Difluoro-phenyl)-6-fluoro-7-(1S-methyl-1,2,3,4-tetrahydro-pyrrolo[1,2-a]pyrazin-7-yl)-4-oxo-1,4-dihydro-[1,8]naphthyridine-3-carboxylic acid]	4 µg/mL (≈ 8.8 µM)	1 µg/mL (≈ 2.2 µM)	16 µg/mL (≈ 35.2 µM)	> 16 µg/mL	> 16 µg/mL
C[C@@H]1NCCn2cc(-c3c(F)cc4c(=O)c(C(=O)O)cn(C5CC5)c4c3OC(F)F)cc21 [Compound 29, 1-Cyclopropyl-8-difluoromethoxy-6-fluoro-7-(1S-methyl-1,2,3,4-tetrahydro-pyrrolo[1,2-a]pyrazin-7-yl)-4-oxo-1,4-dihydro-quinoline-3-carboxylic acid]	2 µg/mL (≈ 4.47 µM)	0.25 µg/mL (≈ 0.559 µM)	1 µg/mL (≈ 2.24 µM)	8 µg/mL (≈ 17.9 µM)	16 µg/mL (≈ 35.8 µM)
O=C(O)c1cn(-c2ccc(F)cc2F)c2nc(-c3cc4n(c3)CCN(Cc3ccccc3)C4)c(F)cc2c1=O [Compound 30, 7-(2-Benzyl-1,2,3,4-tetrahydro-pyrrolo[1,2-a]pyrazin-7-yl)-1-(2,4-difluoro-phenyl)-6-fluoro-4-oxo-1,4-dihydro-[1,8]naphthyridine-3-carboxylic acid]	8 µg/mL (≈ 15.1 µM)	2 µg/mL (≈ 3.77 µM)	8 µg/mL (≈ 15.1 µM)	8 µg/mL (≈ 15.1 µM)	16 µg/mL (≈ 30.2 µM)
COc1c(-c2cc3n(c2)CCN(Cc2ccccc2)C3)c(F)cc2c(=O)c(C(=O)O)cn(C3CC3)c12 [Compound 31, 7-(2-Benzyl-1,2,3,4-tetrahydro-pyrrolo[1,2-a]pyrazin-7-yl)-1-cyclopropyl-6-fluoro-8-methoxy-4-oxo-1,4-dihydro-quinoline-3-carboxylic acid]	2 µg/mL (≈ 4.1 µM)	0.25 µg/mL (≈ 0.513 µM)	8 µg/mL (≈ 16.4 µM)	> 16 µg/mL	> 16 µg/mL
COc1c(C2=C[C@H]3CNCCN3C2)c(F)cc2c(=O)c(C(=O)O)cn(C3CC3)c12 [Compound 32, 1-Cyclopropyl-6-fluoro-7-(1,2,3,4,6,8a-hexahydro-pyrrolo[1,2S-a]pyrazin-7-yl)-8-methoxy-4-oxo-1,4-dihydro-quinoline-3-carboxylic acid]	2 µg/mL (≈ 5.01 µM)	0.25 µg/mL (≈ 0.626 µM)	16 µg/mL (≈ 40.1 µM)	> 16 µg/mL	16 µg/mL (≈ 40.1 µM)
C[C@H]1COc2c(C3=C[C@H]4CNCCN4C3)c(F)cc3c(=O)c(C(=O)O)cn1c23 [Compound 33, 8-Fluoro-9-(1,2,3,4,6,8a-hexahydro-pyrrolo[12-a]pyrazin-7-yl)-3S-methyl-6-oxo-2,3-dihydro-6H-1-oxa-3a-aza-phenalene-5-carboxylic acid]	2 µg/mL (≈ 5.19 µM)	0.25 µg/mL (≈ 0.649 µM)	> 16 µg/mL	> 16 µg/mL	> 16 µg/mL
COc1c(-c2cc3n(c2)CCNC3)c(F)cc2c(=O)c(C(=O)O)cn(C3CC3)c12 [Compound 34, 1-Cyclopropyl-6-fluoro-8-methoxy-4-oxo-7-(1,2,3,4-tetrahydro-pyrrolo[1,2-a]pyrazin-7-yl)-1,4-dihydro-quinoline-3-carboxylic acid]	0.25 µg/mL (≈ 0.629 µM)	0.03 µg/mL (≈ 0.0755 µM)	1 µg/mL (≈ 2.52 µM)	1 µg/mL (≈ 2.52 µM)	1 µg/mL (≈ 2.52 µM)
C[C@H]1COc2c(-c3cc4n(c3)CCNC4)c(F)cc3c(=O)c(C(=O)O)cn1c23 [Compound 35, 8-Fluoro-3S-methyl-6-oxo-9-(1,2,3,4-tetrahydro-pyrrolo[1,2-a]pyrazin-7-yl)-2,3-dihydro-6H-1-oxa-3a-aza-phenalene-5-carboxylic acid]	2 µg/mL (≈ 5.22 µM)	0.5 µg/mL (≈ 1.3 µM)	> 16 µg/mL	> 16 µg/mL	> 16 µg/mL
